Biological target: 5HT2B receptors (Homo sapiens (Human), UniProt P41595)
Assay: Radiolabel Binding Studies for Serotonin 5HT2B receptors, method 1 ([3H]LSD competition)
Conditions: for IC50: [3H]LSD radioligand; for inhibition at 10 µM: single concentration 10 uM, inhibition of [3H]LSD binding, read-out: 5-HT2B % inhib @10 uM
Protocol: A solution of the compound of the disclosure to be tested is prepared as a 1-mg/ml stock in Assay Buffer (50 mM Tris-HCl, 10 mM MgCl2, 1 mM EDTA, pH 7.4) or DMSO according to its solubility. A 1-mg/ml stock of the reference compound 5-hydroxytryptamine (5-HT) is also prepared as a positive control. Eleven dilutions (5× assay concentration) of the compound of the disclosure and 5-HT are prepared in the Assay Buffer by serial dilution to yield final corresponding assay concentrations ranging from […].
A stock concentration of 5 nM [^3H]LSD (lysergic acid diethyl amide) is prepared in Assay Buffer. Aliquots (50 μl) of radioligand are dispensed into the wells of a 96-well plate containing 100 μl of Assay Buffer. Duplicate 50-μl aliquots of the compound of the disclosure test and 5-HT positive control reference compound serial dilutions are added.
Membrane fractions of cells expressing recombinant 5HT2B receptors (50 μL) are dispensed into each well. The membranes are prepared from stably transfected c ell lines expressing 5HT2B receptors cultured on 10-cm plates by harvesting PBS-rinsed monolayers, resuspending and lysing the monolayers in chilled, hypotonic 50 mM Tris-HCl, pH 7.4, centrifuging at 20,000×g, decanting the supernatant and storing at −80° C. The membrane preparations are resuspended in 3 ml of chilled Assay Buffer and homogenized by several passages through a 26 gauge needle before use in the assay.
The 250-μl reactions are incubated at room temperature for 1.5 hours, then harvested by rapid filtration onto 0.3% polyethyleneimine-treated, 96-well filter mats using a 96-well Filtermate harvester. Four rapid 500-μl washes are performed with chilled Assay Buffer to reduce non-specific binding. The filter mats are dried, then scintillant is added to the filters and the radioactivity retained on the filters is counted in a scintillation counter.
Raw data (dpm) representing total radioligand binding (i.e., specific+non-specific binding) are plotted as a function of the logarithm of the molar concentration of the competitor (i.e., test or reference compound). Non-linear regression of the normalized (i.e., percent radioligand binding compared to that observed in the absence of test or reference compound) raw data is performed in […] (GraphPad Software, Inc.) using the built-in three parameter logistic model describing ligand competition binding to radioligand-labeled sites: y=bottom+[(top−bottom)/(1+[…])] where “bottom” is the residual radioligand binding measured in the presence of 10 μM reference compound (i.e., non-specific binding) and “top” is the total radioligand binding observed in the absence of competitor. The log IC50 (i.e., the log of the ligand concentration that reduces radioligand binding by 50%) is thus estimated from the data and used to obtain the Ki by applying the Cheng-Prusoff approximation: Ki=IC50/(1+[ligand]/KD) where “[ligand]” is the assay radioligand concentration and “KD” is the affinity constant of the radioligand for the target receptor.
Compounds of the disclosure are also screened at a single concentration of 10 μM using the same method described for the Radiolabel Binding Studies for Serotonin 5HT2B receptors, method 1 to determine the percent inhibition of [^3H]LSD binding.

Chain of 5HT2B receptors (P41595 whole entry): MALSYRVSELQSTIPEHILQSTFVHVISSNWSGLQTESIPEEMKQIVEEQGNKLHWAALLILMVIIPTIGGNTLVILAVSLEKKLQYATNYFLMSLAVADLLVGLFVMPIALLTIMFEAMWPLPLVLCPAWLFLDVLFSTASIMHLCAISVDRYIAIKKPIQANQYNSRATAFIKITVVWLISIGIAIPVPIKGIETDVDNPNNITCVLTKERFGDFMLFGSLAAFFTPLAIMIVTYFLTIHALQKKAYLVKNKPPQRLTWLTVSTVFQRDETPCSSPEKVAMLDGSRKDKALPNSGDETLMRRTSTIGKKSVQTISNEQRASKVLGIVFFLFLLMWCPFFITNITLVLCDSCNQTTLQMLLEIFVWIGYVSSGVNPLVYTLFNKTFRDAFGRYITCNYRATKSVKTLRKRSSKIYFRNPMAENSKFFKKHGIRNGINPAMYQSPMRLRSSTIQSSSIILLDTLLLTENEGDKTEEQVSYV

Row | SMILES | IC50 [nM] | inhibition at 10 µM [%]
1 | O=C1OC(CN2CCN(C(c3ccccc3)c3ccccc3)CC2)CN1C1CCC1 (stereo not shown) [Entry 4] | 190 | 87.3
2 | O=C1OC(CN2CCN(C(c3ccccc3)c3ccccc3)CC2)CN1C1CCCC1 (stereo not shown) [Entry 5] | 41 | 94.1
3 | C=CCN1CC(CN2CCN(C(c3ccccc3)c3ccccc3)CC2)OC1=O (stereo not shown) [Entry 1] | 126 | 91.1
4 | CC(C)N1CC(CN2CCN(C(c3ccccc3)c3ccccc3)CC2)OC1=O (stereo not shown) [Entry 3] | 274 | 84.9
5 | CC(C)(C)N1CC(CN2CCN(C(c3ccccc3)c3ccccc3)CC2)OC1=O (stereo not shown) [Entry 6] | 1870 | 59.3
6 | O=C1OC(CN2CCN(C(c3ccccc3)c3ccccc3)CC2)CN1C1CCCCC1 (stereo not shown) [Entry 2] |  | 91.4
7 | O=C1OC(CN2CCN(C(c3ccccc3)c3ccccc3)CC2)CN1C1CC1 (stereo not shown) [Entry 7] | 298 | 87.6

— patent publication US9464062B2, “Disubstituted oxazolidin-2-ones 5-hydroxytryptamine receptor 2B activity modulators” (TEMPLE UNIVERSITY—OF THE COMMONWEALTH SYSTEM OF HIGHER …, priority 2012, dated 2016)
